Earlier results as cited in publication PMC5087393, “A Toolbox of Genetically Encoded FRET-Based Biosensors for Rapid L-Lysine Analysis” (Sensors (Basel, Switzerland), 2016).
pKd: −log10 of the molar value.

Assays:
[1] = target: LAO-binding protein from S. typhimurium; design: method as in PMID 1400387; conditions: 10 mM NaPi buffer, pH 7.0; read-out: Kd (equilibrium dialysis)
[2] = test system: LAO-binding protein of E. coli; conditions: read-out: Kd (equilibrium dialysis); without permutation and fluorescent proteins; 10 mM KPi buffer, pH 7.0, 50 mM NaCl

In the case of `N=C(N)NCCC[C@H](N)C(=O)O` [L-arginine], the pKd [1] is listed as 7.85 and the pKd [2] is listed as 5.82.
For `N[C@@H](Cc1c[nH]cn1)C(=O)O` [L-histidine], the pKd [1] is listed as 6.30.
In the case of `NCCCC[C@H](N)C(=O)O` [L-lysine], the pKd [1] is listed as 7.82 and the pKd [2] is listed as 5.52.
